Assay results published in ChEMBL document CHEMBL1201862, “PubChem BioAssay data set” (2004).
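All cell lines were grown in 96-well plates and treated with compound for 48 hours. GI50: concentration for 50% inhibition of growth.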 The source made the active and inactive calls. Cut-off read from the data, not from the text of the source: active = GI50 up to about 1.1 µM and inactive = higher.

Columns and labels:
Test in all cases: NCI tumour cell line growth inhibition, 48 h
BT-549 = system: BT-549
CCRF-CEM = system: CCRF-CEM
COLO 205 = system: COLO 205
DU-145 = system: DU-145
HCT-116 = system: HCT-116
Hs-578T = system: Hs-578T
KM12 = system: KM12
MDA-MB-435 = system: MDA-MB-435
MDA-N = system: MDA-N
NCI-H226 = system: NCI-H226
NCI-H460 = system: NCI-H460
NCI-H522 = system: NCI-H522
OVCAR-3 = system: OVCAR-3
RXF 393 = system: RXF 393
SK-MEL-2 = system: SK-MEL-2
SK-OV-3 = system: SK-OV-3
SN12C = system: SN12C
UACC-62 = system: UACC-62
UO-31 = system: UO-31
EKVX = system: EKVX

Structure (SMILES)	GI50 (BT-549)	GI50 (CCRF-CEM)	GI50 (COLO 205)	GI50 (DU-145)	GI50 (HCT-116)	GI50 (Hs-578T)	GI50 (KM12)	GI50 (MDA-MB-435)	GI50 (MDA-N)	GI50 (NCI-H226)	GI50 (NCI-H460)	GI50 (NCI-H522)	GI50 (OVCAR-3)	GI50 (RXF 393)	GI50 (SK-MEL-2)	GI50 (SK-OV-3)	GI50 (SN12C)	GI50 (UACC-62)	GI50 (UO-31)	GI50 (EKVX)
CCOC(=O)c1c(SCCN2CCCCC2)n(-c2ccccc2)c(=S)n(-c2ccccc2)c1=O	16.6 µM (inactive)	2.99 µM (inactive)	11.7 µM (inactive)	29.6 µM (inactive)	2.18 µM (inactive)	26.1 µM (inactive)	19 µM (inactive)	16.3 µM (inactive)	18.5 µM (inactive)	12.3 µM (inactive)	33.9 µM (inactive)	16.7 µM (inactive)	9.57 µM (inactive)	13 µM (inactive)	> 100 µM (inactive)	36.2 µM (inactive)	19.2 µM (inactive)	25.8 µM (inactive)	18.2 µM (inactive)	
CS(=O)(=O)N1CC(CCl)c2ccc([N+](=O)[O-])cc21 (configuration not stated)	> 100 µM (inactive)	> 100 µM (inactive)	> 100 µM (inactive)	> 100 µM (inactive)	> 100 µM (inactive)	70.1 µM (inactive)	> 100 µM (inactive)	> 100 µM (inactive)	> 100 µM (inactive)	> 100 µM (inactive)	38.2 µM (inactive)	> 100 µM (inactive)	> 100 µM (inactive)	> 100 µM (inactive)	> 100 µM (inactive)	> 100 µM (inactive)	> 100 µM (inactive)	> 100 µM (inactive)	> 100 µM (inactive)	> 100 µM (inactive)
COc1ccc(/C=N/N2C(=O)c3c(N)c(C#N)c(-c4ccccc4)c(-c4ccccc4)c3C2=O)cc1	> 100 µM (inactive)	> 100 µM (inactive)	> 100 µM (inactive)	> 100 µM (inactive)	3.65 µM (inactive)	> 100 µM (inactive)	> 100 µM (inactive)	> 100 µM (inactive)	> 100 µM (inactive)	> 100 µM (inactive)	> 100 µM (inactive)	> 100 µM (inactive)	> 100 µM (inactive)	72.8 µM (inactive)	> 100 µM (inactive)		> 100 µM (inactive)	> 100 µM (inactive)	> 100 µM (inactive)	> 100 µM (inactive)
CCN(CC)c1ccc(/C=C/C2=NN(c3cccc(S(=O)(=O)O)c3)C3(C2)SCC(=O)N3c2nc3ccccc3s2)cc1 (configuration not stated)	60.1 µM (inactive)	21.4 µM (inactive)	24.1 µM (inactive)	27.4 µM (inactive)	45.1 µM (inactive)	33.3 µM (inactive)	23.9 µM (inactive)	23.6 µM (inactive)	39 µM (inactive)	16.8 µM (inactive)	36.5 µM (inactive)	18.5 µM (inactive)		> 100 µM (inactive)	40.1 µM (inactive)		59 µM (inactive)	37.7 µM (inactive)	29.9 µM (inactive)	36 µM (inactive)
NS(=O)(=O)c1nnc(NS(=O)(=O)c2ccc(Cl)cc2)s1	> 100 µM (inactive)		> 100 µM (inactive)	> 100 µM (inactive)	> 100 µM (inactive)	> 100 µM (inactive)	> 100 µM (inactive)	> 100 µM (inactive)	> 100 µM (inactive)	> 100 µM (inactive)	> 100 µM (inactive)	> 100 µM (inactive)	> 100 µM (inactive)	> 100 µM (inactive)	> 100 µM (inactive)	> 100 µM (inactive)	> 100 µM (inactive)	> 100 µM (inactive)	> 100 µM (inactive)	> 100 µM (inactive)
O=[N+]([O-])c1ccc(CSC2=C(c3ccc(Cl)cc3)S/C(=C3\SC(SCc4ccc([N+](=O)[O-])cc4)=C(c4ccc(Cl)cc4)S3)S2)cc1	> 100 µM (inactive)	> 100 µM (inactive)	> 100 µM (inactive)	> 100 µM (inactive)	> 100 µM (inactive)	> 100 µM (inactive)	> 100 µM (inactive)	> 100 µM (inactive)	> 100 µM (inactive)	> 100 µM (inactive)	> 100 µM (inactive)	> 100 µM (inactive)	> 100 µM (inactive)	> 100 µM (inactive)	> 100 µM (inactive)	> 100 µM (inactive)	> 100 µM (inactive)	> 100 µM (inactive)		> 100 µM (inactive)
CC(O)CC(=O)CO[C@H]1[C@H](O)[C@@H](O)[C@@H](O)[C@@H]2NC(=O)c3c(cc4c(c3O)OCO4)[C@H]21 (some centres not stated)	0.0509 µM (active)	0.0184 µM (active)	0.0332 µM (active)	0.0214 µM (active)	0.0264 µM (active)	0.0398 µM (active)	0.0316 µM (active)	0.0386 µM (active)	0.0366 µM (active)	0.0499 µM (active)	0.0275 µM (active)	0.0242 µM (active)	0.0457 µM (active)	0.0208 µM (active)	0.0363 µM (active)	0.0617 µM (active)	0.0266 µM (active)	0.0541 µM (active)	0.115 µM (active)	0.0266 µM (active)
O=C1C=C(c2ccccc2)O/C1=C\C(=O)c1ccc(Cl)cc1	12.5 µM (inactive)		16.3 µM (inactive)	43.6 µM (inactive)	16.4 µM (inactive)	21.9 µM (inactive)	34.4 µM (inactive)	15.8 µM (inactive)	23.6 µM (inactive)	17.4 µM (inactive)	> 100 µM (inactive)	20.7 µM (inactive)	22.1 µM (inactive)	17.7 µM (inactive)		98.4 µM (inactive)	3.66 µM (inactive)	15.6 µM (inactive)	20.7 µM (inactive)	> 100 µM (inactive)
CC(Oc1ccccc1Cl)C(=O)NN1C(=O)CC(=O)NC1=S (configuration not stated)	> 100 µM (inactive)		> 100 µM (inactive)	> 100 µM (inactive)	> 100 µM (inactive)	> 100 µM (inactive)	83.8 µM (inactive)	> 100 µM (inactive)	> 100 µM (inactive)	> 100 µM (inactive)	> 100 µM (inactive)	> 100 µM (inactive)	> 100 µM (inactive)	> 100 µM (inactive)	93.5 µM (inactive)	> 100 µM (inactive)	> 100 µM (inactive)	46.1 µM (inactive)	92.5 µM (inactive)	> 100 µM (inactive)
COC1OC2COC1(OCc1ccccc1)C1OC(C)(C)OC21 (configuration not stated)	> 100 µM (inactive)	> 100 µM (inactive)	> 100 µM (inactive)	> 100 µM (inactive)	> 100 µM (inactive)	> 100 µM (inactive)	> 100 µM (inactive)	> 100 µM (inactive)	> 100 µM (inactive)	> 100 µM (inactive)	> 100 µM (inactive)	> 100 µM (inactive)	> 100 µM (inactive)	> 100 µM (inactive)	> 100 µM (inactive)	> 100 µM (inactive)	> 100 µM (inactive)	> 100 µM (inactive)	> 100 µM (inactive)	> 100 µM (inactive)
CCCCn1c2c(n(CCCC)c1=[Se])-c1c(n(CCCC)c(=[Se])n1CCCC)S[Se][Se]S2	27.7 µM (inactive)	3.78 µM (inactive)	8.65 µM (inactive)	25 µM (inactive)	22.8 µM (inactive)	18.7 µM (inactive)	27.2 µM (inactive)	49.9 µM (inactive)	33.7 µM (inactive)	6.52 µM (inactive)	7.6 µM (inactive)	1.61 µM (inactive)	6.95 µM (inactive)	21.8 µM (inactive)	18 µM (inactive)	24.5 µM (inactive)	24.6 µM (inactive)	17.8 µM (inactive)	14.1 µM (inactive)	38.5 µM (inactive)
O=C1c2cc(Cc3ccccc3)c(=O)c(Cc3ccccc3)cc2C(=O)c2cc(Cc3ccccc3)c(=O)c(Cc3ccccc3)cc21	> 100 µM (inactive)	74.5 µM (inactive)	> 100 µM (inactive)	> 100 µM (inactive)	> 100 µM (inactive)	> 100 µM (inactive)	> 100 µM (inactive)	> 100 µM (inactive)	> 100 µM (inactive)	> 100 µM (inactive)	> 100 µM (inactive)	> 100 µM (inactive)	> 100 µM (inactive)	24.4 µM (inactive)	> 100 µM (inactive)		> 100 µM (inactive)		> 100 µM (inactive)	> 100 µM (inactive)
O=C1c2ccccc2-c2nc(-c3cccc([N+](=O)[O-])c3)nnc21	19.5 µM (inactive)	7.14 µM (inactive)	3.91 µM (inactive)	4.25 µM (inactive)	23.1 µM (inactive)	12.4 µM (inactive)	8 µM (inactive)	1.97 µM (inactive)	2.54 µM (inactive)	7.91 µM (inactive)	3.96 µM (inactive)	26.5 µM (inactive)		24.3 µM (inactive)	18.9 µM (inactive)	> 100 µM (inactive)	21.4 µM (inactive)	9.12 µM (inactive)	12.3 µM (inactive)	7.38 µM (inactive)
C[n+]1c(-c2ccc(/C=N/NC(=O)C(=O)N/N=C/c3ccc(-c4cn5ccccc5[n+]4C)cc3)cc2)cn2ccccc21	> 100 µM (inactive)	> 100 µM (inactive)	> 100 µM (inactive)	> 100 µM (inactive)		> 100 µM (inactive)	> 100 µM (inactive)	> 100 µM (inactive)	> 100 µM (inactive)	> 100 µM (inactive)	> 100 µM (inactive)	> 100 µM (inactive)	45.9 µM (inactive)	> 100 µM (inactive)	> 100 µM (inactive)	> 100 µM (inactive)	> 100 µM (inactive)	> 100 µM (inactive)	> 100 µM (inactive)	> 100 µM (inactive)
